We go through three molecules from patent US20240246942A1, “KINASE INHIBITORS FOR THE TREATMENT OF NEURODEGENERATIVE DISEASES” (priority 2020, published 2024).

Read-outs that look alike come from different tables or passages of the source.

Holding throughout (assay): biochemical
Test [1] has as its target T1, panel of 374 wild-type kinases (Homo sapiens, UniProt Q13554).
T1 construct: purchased Reaction Biology Corporation
To be noted: read-out: % Enzyme Activity (relative to DMSO controls), CAMK2b.

Test [2] has as its target T2, panel of 374 wild-type kinases (Homo sapiens, UniProt Q00526).
T2 construct: purchased Reaction Biology Corporation

Test [3] addresses T3, panel of 374 wild-type kinases (Homo sapiens, UniProt Q86YV6).
T3 construct: purchased Reaction Biology Corporation
T3 sequence (Q86YV6 1-388): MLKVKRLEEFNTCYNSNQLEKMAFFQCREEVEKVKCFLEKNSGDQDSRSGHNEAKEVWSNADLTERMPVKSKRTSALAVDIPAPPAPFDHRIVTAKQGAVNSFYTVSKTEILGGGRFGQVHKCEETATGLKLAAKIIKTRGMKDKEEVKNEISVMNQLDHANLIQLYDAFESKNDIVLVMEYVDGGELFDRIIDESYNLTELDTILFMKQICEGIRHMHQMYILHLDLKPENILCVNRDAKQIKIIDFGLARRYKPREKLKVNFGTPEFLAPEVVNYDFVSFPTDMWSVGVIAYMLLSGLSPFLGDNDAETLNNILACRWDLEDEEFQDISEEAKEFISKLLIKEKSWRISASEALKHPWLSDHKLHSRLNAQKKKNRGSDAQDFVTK
To be noted: read-out: % Enzyme Activity (relative to DMSO controls), MYLK4.

Test [4] concerns the target T4, panel of 374 wild-type kinases (Homo sapiens, UniProt Q9NWZ3).
T4 construct: purchased Reaction Biology Corporation
T4 sequence (Q9NWZ3 1-460): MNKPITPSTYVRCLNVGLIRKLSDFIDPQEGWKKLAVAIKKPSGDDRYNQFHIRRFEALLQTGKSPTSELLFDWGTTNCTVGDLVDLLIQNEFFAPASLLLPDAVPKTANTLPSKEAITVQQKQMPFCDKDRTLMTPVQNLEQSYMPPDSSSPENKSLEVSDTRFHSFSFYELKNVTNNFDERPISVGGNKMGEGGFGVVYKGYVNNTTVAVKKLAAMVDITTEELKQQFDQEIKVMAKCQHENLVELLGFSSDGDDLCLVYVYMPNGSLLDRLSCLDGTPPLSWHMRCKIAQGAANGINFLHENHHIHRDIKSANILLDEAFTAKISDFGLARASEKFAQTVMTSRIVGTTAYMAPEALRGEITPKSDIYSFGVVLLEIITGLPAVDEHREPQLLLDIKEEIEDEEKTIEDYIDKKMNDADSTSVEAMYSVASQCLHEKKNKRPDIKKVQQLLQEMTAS
To be noted: read-out: % Enzyme Activity (relative to DMSO controls), IRAK4.

The target of test [5] is T5, panel of 374 wild-type kinases (Homo sapiens, UniProt O14757).
T5 construct: purchased Reaction Biology Corporation
T5 sequence (O14757 1-476): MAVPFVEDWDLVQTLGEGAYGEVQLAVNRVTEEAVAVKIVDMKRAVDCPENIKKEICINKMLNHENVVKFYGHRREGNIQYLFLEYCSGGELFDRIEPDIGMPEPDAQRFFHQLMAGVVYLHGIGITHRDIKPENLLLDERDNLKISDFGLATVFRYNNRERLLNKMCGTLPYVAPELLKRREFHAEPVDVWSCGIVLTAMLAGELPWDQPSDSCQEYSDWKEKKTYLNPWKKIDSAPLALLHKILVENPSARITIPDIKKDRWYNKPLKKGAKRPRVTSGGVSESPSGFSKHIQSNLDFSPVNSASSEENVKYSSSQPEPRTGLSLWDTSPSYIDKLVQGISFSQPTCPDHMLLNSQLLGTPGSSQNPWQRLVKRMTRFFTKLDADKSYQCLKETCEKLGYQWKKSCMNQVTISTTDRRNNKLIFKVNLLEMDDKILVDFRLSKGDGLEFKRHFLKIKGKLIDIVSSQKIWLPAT
The following applies: read-out: % Enzyme Activity (relative to DMSO controls), CHK1.

The target in test [6] is T6, panel of 374 wild-type kinases (Homo sapiens, UniProt P49759).
T6 construct: purchased Reaction Biology Corporation
T6 sequence (P49759 whole entry): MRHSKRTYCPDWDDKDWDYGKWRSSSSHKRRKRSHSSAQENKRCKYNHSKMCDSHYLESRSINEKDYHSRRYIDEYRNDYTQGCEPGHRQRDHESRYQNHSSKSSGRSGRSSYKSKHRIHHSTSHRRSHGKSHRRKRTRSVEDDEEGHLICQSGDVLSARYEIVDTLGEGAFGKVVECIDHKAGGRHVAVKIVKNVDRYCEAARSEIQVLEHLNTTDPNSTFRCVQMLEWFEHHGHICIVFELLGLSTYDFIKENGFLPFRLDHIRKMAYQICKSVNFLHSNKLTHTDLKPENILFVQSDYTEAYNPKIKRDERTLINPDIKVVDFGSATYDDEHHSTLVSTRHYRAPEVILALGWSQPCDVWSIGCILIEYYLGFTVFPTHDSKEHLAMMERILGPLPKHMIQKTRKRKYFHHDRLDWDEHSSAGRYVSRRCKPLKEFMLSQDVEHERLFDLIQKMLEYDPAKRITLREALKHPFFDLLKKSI
The following applies: read-out: % Enzyme Activity (relative to DMSO controls), CLK1.

Test [7] has as its target T7, panel of 374 wild-type kinases (Homo sapiens, UniProt P51617).
T7 construct: purchased Reaction Biology Corporation
The following applies: read-out: % Enzyme Activity (relative to DMSO controls), IRAK1.

The target of test [8] is T8, panel of 374 wild-type kinases (Homo sapiens, UniProt O15146).
T8 construct: purchased Reaction Biology Corporation
T8 sequence (O15146 24-869): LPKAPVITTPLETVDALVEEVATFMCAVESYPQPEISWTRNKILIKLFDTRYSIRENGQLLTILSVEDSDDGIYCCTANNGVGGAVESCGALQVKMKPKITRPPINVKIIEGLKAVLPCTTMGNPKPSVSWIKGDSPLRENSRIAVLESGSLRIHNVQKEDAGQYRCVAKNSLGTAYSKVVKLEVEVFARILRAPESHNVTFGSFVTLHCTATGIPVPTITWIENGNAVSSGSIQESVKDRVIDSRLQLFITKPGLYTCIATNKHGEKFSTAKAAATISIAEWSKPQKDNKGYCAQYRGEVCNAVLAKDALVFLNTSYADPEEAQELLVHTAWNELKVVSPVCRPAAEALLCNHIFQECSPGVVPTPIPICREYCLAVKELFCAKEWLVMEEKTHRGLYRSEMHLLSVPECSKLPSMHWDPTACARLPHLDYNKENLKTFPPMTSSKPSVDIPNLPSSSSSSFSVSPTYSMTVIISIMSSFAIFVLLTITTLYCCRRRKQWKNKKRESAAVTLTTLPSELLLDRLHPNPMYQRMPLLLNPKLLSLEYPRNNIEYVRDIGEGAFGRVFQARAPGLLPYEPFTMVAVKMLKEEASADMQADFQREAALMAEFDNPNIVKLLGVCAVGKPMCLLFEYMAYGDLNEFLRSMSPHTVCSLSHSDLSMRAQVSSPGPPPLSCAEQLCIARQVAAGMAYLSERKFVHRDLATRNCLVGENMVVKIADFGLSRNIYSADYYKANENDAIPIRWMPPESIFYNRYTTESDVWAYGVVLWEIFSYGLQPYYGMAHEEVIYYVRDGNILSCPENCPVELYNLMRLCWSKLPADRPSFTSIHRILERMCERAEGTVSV
To be noted: read-out: % Enzyme Activity (relative to DMSO controls), MUSK.

Test [9] addresses T9, panel of 374 wild-type kinases (Homo sapiens, UniProt P06239).
T9 construct: purchased Reaction Biology Corporation
The following applies: read-out: % Enzyme Activity (relative to DMSO controls), LCK.

The mark [10] stands for this setting: read-out: % Enzyme Activity (relative to DMSO controls), CDK3/cyclin E2.
Setting [11] is: read-out: % Enzyme Activity (relative to DMSO controls), CDK3/cyclin E.

T9 sequence (P06239 whole entry): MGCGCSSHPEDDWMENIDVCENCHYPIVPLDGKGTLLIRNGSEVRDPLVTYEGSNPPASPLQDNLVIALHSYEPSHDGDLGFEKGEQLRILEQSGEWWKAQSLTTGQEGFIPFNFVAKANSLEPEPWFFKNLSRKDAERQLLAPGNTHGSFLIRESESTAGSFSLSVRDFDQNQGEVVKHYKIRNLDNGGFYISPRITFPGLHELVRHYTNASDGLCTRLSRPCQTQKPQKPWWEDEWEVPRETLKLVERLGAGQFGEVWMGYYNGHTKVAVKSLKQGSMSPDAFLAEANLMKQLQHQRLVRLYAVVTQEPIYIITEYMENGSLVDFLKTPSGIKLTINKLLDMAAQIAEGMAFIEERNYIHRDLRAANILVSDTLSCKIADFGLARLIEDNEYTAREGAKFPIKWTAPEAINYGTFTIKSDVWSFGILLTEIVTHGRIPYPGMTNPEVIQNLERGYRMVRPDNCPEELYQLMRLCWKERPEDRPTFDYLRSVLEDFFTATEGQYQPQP
T1 sequence (Q13554 whole entry): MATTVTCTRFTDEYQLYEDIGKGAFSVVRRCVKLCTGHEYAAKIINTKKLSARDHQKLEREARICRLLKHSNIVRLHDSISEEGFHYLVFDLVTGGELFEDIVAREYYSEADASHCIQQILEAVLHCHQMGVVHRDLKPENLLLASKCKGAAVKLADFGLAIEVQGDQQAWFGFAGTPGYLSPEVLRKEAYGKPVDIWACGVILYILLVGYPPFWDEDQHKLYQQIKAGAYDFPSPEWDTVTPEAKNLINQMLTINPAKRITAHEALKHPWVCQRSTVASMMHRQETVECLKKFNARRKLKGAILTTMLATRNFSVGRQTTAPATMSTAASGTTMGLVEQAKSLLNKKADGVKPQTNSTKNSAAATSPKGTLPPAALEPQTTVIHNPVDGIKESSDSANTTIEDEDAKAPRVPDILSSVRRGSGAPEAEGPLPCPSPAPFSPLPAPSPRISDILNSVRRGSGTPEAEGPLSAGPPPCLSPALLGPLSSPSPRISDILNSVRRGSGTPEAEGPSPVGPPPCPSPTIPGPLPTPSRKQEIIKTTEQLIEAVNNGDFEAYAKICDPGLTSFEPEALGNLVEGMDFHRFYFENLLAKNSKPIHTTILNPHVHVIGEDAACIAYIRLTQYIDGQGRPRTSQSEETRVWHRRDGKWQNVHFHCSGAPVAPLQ
T2 sequence (Q00526 whole entry): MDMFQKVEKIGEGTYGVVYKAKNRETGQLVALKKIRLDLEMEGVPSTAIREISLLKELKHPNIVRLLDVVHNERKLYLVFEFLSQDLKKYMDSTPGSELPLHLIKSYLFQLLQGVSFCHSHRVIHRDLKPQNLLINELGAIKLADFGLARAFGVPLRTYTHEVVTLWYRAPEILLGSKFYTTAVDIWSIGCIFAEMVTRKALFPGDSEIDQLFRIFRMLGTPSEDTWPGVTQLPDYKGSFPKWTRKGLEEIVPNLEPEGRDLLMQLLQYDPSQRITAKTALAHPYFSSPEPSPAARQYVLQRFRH
T7 sequence (P51617 whole entry): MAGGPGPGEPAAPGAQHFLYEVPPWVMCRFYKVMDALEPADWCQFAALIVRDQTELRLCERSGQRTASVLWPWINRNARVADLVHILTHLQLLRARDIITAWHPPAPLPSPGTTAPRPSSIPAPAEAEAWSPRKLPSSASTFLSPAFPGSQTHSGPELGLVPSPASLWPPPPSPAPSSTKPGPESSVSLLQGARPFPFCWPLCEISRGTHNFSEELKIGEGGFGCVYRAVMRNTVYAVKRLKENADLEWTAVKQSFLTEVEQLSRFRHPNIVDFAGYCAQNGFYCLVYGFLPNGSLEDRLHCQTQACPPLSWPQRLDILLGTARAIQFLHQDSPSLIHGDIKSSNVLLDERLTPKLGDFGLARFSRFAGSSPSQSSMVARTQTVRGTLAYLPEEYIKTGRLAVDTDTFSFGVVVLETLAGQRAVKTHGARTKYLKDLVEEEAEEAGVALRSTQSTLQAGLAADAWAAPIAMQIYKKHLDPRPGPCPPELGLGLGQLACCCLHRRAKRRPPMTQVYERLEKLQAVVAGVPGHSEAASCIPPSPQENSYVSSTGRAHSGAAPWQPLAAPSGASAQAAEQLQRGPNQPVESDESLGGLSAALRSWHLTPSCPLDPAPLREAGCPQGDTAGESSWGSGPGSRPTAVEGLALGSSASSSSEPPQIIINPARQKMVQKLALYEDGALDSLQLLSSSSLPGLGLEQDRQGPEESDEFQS

`Cc1sc(C(=O)NC2COC2)cc1-n1cc(NC(=O)Nc2c(F)cccc2Cl)cn1` [Compound 27, 4-(4-(3-(2-chloro-6-fluorophenyl)ureido)-1H-pyrazol-1-yl)-5-methyl-N-(oxetan-3-yl)thiophene-2-carboxamide]: the remaining activity at 10 µM was determined as 100% in test [1] (10 uM); 103% in test [2] (setting [10]); 91.2% in test [2] (setting [11]); 109% in test [3] (10 uM); 103% in test [4] (10 uM); 118% in [5] (10 uM). In addition, the remaining activity at 10 µM in [6] (10 uM) worked out at 98.4%; in test [7] (10 uM) it was 79.9%; in test [8] (10 uM) it was 103%; in test [9] (10 uM), 46.5%.
In the case of `O=C(Nc1cnn(-c2csc(C(=O)NC3COC3)c2)c1)Nc1c(F)cccc1Cl` [Compound 25, 4-(4-(3-(2-chloro-6-fluorophenyl)ureido)-1H-pyrazol-1-yl)-N-(oxetan-3-yl)thiophene-2-carboxamide], the remaining activity at 5 µM was 99.1% in test [1]; 109% in test [2] (setting [10]); 92.2% in test [2] (setting [11]); 91.7% in [3]; 97.8% in [4]; 141% in test [5]. Moreover, the remaining activity at 5 µM is 74.9% in [6], 107% in test [7], 86.8% in [8] and 94.2% in test [9].
Take `O=C(Nc1cnn(-c2csc(C(=O)NC3COC3)c2)c1)Nc1ccccc1Cl` [Compound 17, 4-(4-(3-(2-chlorophenyl)ureido)-1H-pyrazol-1-yl)-N-(oxetan-3-yl)thiophene-2-carboxamide]: the remaining activity at 5 µM in [1] is 105%; in test [2] (setting [10]), 95.8%; in test [2] (setting [11]), 107%; in test [3], 85.2%; in [4] it was 92.1%; in [5], 98.7%. Further, the remaining activity at 5 µM in test [6] worked out at 81%; in test [7], 112%; in test [8], 94.5%; in test [9], 99.1%.
